Assay results as given in patent publication US4868195A, “Novel enolamides, pharmaceutical compositions and methods of use thereof for activity as modulators of the arachidonic acid cascade” (Warner-Lambert Company, priority 1988, dated 1989).
“And” between values parts separate entries of the source, which are not always exact repeats. Equal entries are not always repeated.

What was measured:
[1] = target: T1, leukotriene receptor (guinea pig lung membranes) (Cavia porcellus, UniProt Q2NNR5); assay: Binding of ^3 H-Leukotriene D4 to Guinea Pig Lung Membranes (RBL); details: 0.2 nM ^3 H-LTD4, 60 min, 25° C.; read-out: Concentration (M) for 50.0 % Inhibition, IC (RBL)
T1 construct: 20 mg original tissue wet weight of guinea pig lung; tissue Kuiper Rabbit Farm, Gary, IN (animals); host or cells: guinea pig lung, crude membranes
T1 sequence (Q2NNR5 1-340): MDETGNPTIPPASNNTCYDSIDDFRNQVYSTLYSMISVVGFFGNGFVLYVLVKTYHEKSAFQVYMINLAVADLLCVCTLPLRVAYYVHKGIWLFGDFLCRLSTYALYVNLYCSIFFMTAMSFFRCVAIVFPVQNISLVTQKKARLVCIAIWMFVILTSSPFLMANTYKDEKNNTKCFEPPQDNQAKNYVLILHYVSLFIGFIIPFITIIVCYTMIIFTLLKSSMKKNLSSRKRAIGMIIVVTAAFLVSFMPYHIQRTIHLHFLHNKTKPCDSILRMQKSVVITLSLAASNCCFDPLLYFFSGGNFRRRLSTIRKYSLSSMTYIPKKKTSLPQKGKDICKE
Method: Additionally, the activity, of the compounds having the Formula I of the present invention is determined by the well known leukotriene receptor binding assay that is described by R. F. Bruns, W. J. Thomsen and T. A. Pugsley in Life Sciences, 33, 645 (1983) or the Herxheimer in vivo antiallergy test described in H. Herxheimer, J. Physiol. (London), Vol. 177, p. 251 (1952).
Binding of ^3 H-Leukotriene D4 to Guinea Pig Lung Membranes (RBL)
[14,15-^3 H]leukotriene D4 (^3 H-LTD4) (25 Ci/mmol and 40 Ci/mmol) is purchased from New England Nuclear. Unlabeled LTC4 is a gift of Ono Pharmaceuticals (Japan). LTC4, LTD4, and LTE4 are purchased as methyl esters from Paesel GmbH (Frankfurt, W. Germany). Concentrations of the Paesel leukotrienes are calculated from their absorbance at 280 nm. Leukotriene esters are saponified overnight under N2 in 3.3% potassium carbonate at room temperature. Tritiated leukotrienes are stored as received from New England Nuclear at -20° C. Ono LTC4 (5 μg/ml) is stored at -60° C. in phosphate buffer pH 6.8. Saponified Paesel leukotrienes are stored at -60° C. in 3.3% potassium carbonate (pH 9.0-9.5). Aliquots of leukotrienes are taken from stock solutions immediately after thawing, after which the stock solutions are immediately refrozen. 2-Amino-2-(hydroxymethyl)-1,3-propanediol (Tris) is Sigma pH 7.7 pre-set crystals, and dimethylsulfoxide is Aldrich Gold Label.
Preparation of crude lung membranes
Two pairs of lungs (1.3 g) from freshly sacrificed 300 g male guinea pigs (older animals gave substantially lower binding) from Kuiper Rabbit Farm, Gary, IN are disrupted with a Polytron PT 10 (setting 4) for 30 seconds in 20 ml ice-cold 50 mM Tris adjusted with HCl to pH 7.7 at 25° C. (Tris buffer), filtered through a single layer of gauze to remove connective tissue, and centrifuged at 50,000 xg for ten min. The pellet is resuspended by homogenization with a Polytron in 20 ml Tris buffer, centrifuged at 50,000 xg for ten min., resuspended, incubated at 37° C. for 30 minutes, and centrifuged again. The final pellet is resuspended in Tris buffer and either used fresh or stored at -70° C.
All incubations are in triplicate for 60 minutes at 25° C. in 12×75 mm polystyrene tubes containing 1 ml Tris buffer with 20 mg original tissue wet weight of guinea pig lung nmembranes, 0.2 nM ^3 H-LTD4 (6,000-11,000 cpm), 10 mM MgCl2, and 1% dimethylsulfoxide Leukotrienes are diluted in Tris buffer. All other test compounds dissolved at 10 mM in dimethylsulfoxide on the same day as the experiment, and diluted in dimethylsulfoxide to 100× the final incubation concentration. Control incubations receive an equal volume (10 μl) of dimethylsulfoxide; the resulting concentration of dimethylsulfoxide had no effect on binding. ^3 H-LTD4 is diluted to 2 nM in Tris buffer. The membrane suspension (20 mg/0.89 ml) contains sufficient MgCl2 to give 10 mM final concentration in the incubation. […] All additions are performed at 0° C. Immediately after the last addition, the incubation is initiated by agitating the rack of tubes on a vortex mixer and warming to 25° C. in a water bath. Tubes are vortexed at least once more during the incubation to ensure that the membranes remained suspended. Incubations are terminated after 60 minutes by filtering under reduced pressure through 25 mm Whatman GF/B filters followed by rapid washing three times with 4 ml of ice-cold Tris buffer. Filters are added to scintillation vials with 8 ml Formula 947 (New England Nuclear), left overnight, shaken, and the radioactivity counted in a scintillation counter (efficiency 40%). Nonspecific binding, defined as binding of ^3 H-LTD4 in the presence of 100 nM LTC4, is 300-500 cpm for all lots of ^3 H-LTD4. Binding to the filters in the absence of tissue is about 100 cpm, and is not affected by unlabeled LTC4. Specific binding, defined as total binding minus nonspecific binding, varied considerably from lot to lot of ^3 H-LTD4. […]

[2] = target: Human Leukocyte Lipoxygenase; assay: Human Leukocyte Lipoxygenase Assay (LDA-H); assay type: biochemical; details: for IC50: acetone-pentane powder enzyme, 234 nm, 24° C., 5 min preincubation, read-out: Concentration (M) for 50.0 % Inhibition, IC (LDAH)
Method: Human Leukocyte Lipoxygenase Assay (LDA-H)
Whole blood is collected from normal volunteers and spun in a refrigerated centrifuge for four minutes at 1°-6° C. at 3800 g. The buffy coat is manually separated and washed twice with chilled 0.83% NH4 Cl and centrifuged at 1000 RPM for ten minutes at 4° C. The white cell is suspended in culture media-EMEM supplemented with 6% Agamma human serum, tricine buffer, and neomycin and recentrifuged at 1000 g to yield a pellet containing the leukocytes used for the preparation of the acetone pentane powder.
The acetone-pentane powder is prepared utilizing a modification of the procedure reported for human platelet lipoxygenase. See Siegel, et al, Arachidonate Metabolism via Lipoxygenase and 12-L-hydroperoxy-5 Eicosatetraenoic Acid Peroxidase Sensitive to Antiinflammatory Drugs, Proc. Natl. Acad. Sci., USA 77: 308, 1980 and D. P. Wallach and V. R. Brown, A Novel Preparation of Human Platlet Lipoxygenase, Biochem. Biophys. Acta. 663: 361, 1981. Buffy coat prepared above is resuspended in 5-7 volumes of cold 0.1M Tris buffer, pH 7.4 containing 0.154M NaCl. The suspension is centrifuged at 13,300 g for ten minutes at 4° C. The resultant pellet is retained, resuspended in five volumes of cold acetone, recentrifuged at 13,300 g and resuspended in five volumes of cold pentane. The pentane suspension is centrifuged for ten minutes at 13,300 g to give a pellet which is dried in the cold under vacuum with periodic pulverization. The dry powder is stable for several weeks when stored at -80° C.
Enzyme stock solution is prepared in the following manner. About 15 mg of the acetone-pentane powder is suspended in 4 ml of cold tris buffer (0.1M, pH 7.4), allowed to stand for five minutes, and homogenized thoroughly. The homogenate is sonicated three times for 15 seconds each time, diluted to 7 ml with cold tris buffer (0.1M, pH 7.4), and centrifuged at 4° C. for 60 minutes at 13,300 g. the supernatent is retained and diluted to a total of 10 ml with cold tris buffer (0.1M, pH 7.4) to give the stock enzyme solution. Additional dilutions of 2-50 fold are done as necessary to locate optimal enzyme reaction rate in the assay described below.
Substrate solution is prepared at 100 μM or 1.0 μM concentrations of arachidonic acid or linoleic acid in 0.1M tris buffer, pH 9.0 containing 20% ethanol.
The enzyme reaction is followed spectrophotometrically by the appearance of a conjugated diene product at 234 nm. The reaction is monitored at 24° C. using a Gilford Model 2600 spectrophotometer. […] The effects of inhibitors on the reaction are compared with control reactions run under indentical conditions. Routinely, each compounds of the present invention is incubated with the enzyme for five minutes prior to addition of substrate to initiate the reaction. Inhibition expressed as IC50 as molar concentration of the compound required to reduce reaction rate to 50% control.

Row | IC50 [1] | IC50 [2] [M] | % Inhibition (LDAH) ([2]; Concentration 8.00 E -5 M) [%] | % Inhibition (LDAH) ([2]; Concentration 2.50 E -5 M) [%] | Compound
1 | 3.64e-06 M | 1.1e-06 | – | – | O=C(Nc1ccc(CCc2ccc(Cl)c(Cl)c2)cc1)C1CS(=O)(=O)c2ccccc2C1=O (centres unmarked) [Example 11, N-[4-[2-(3,4-Dichlorophenyl)ethyl]phenyl]-3,4-dihydro-4-oxo-2H-1-benzothiopyran-3-carboxamide, 1,1-dioxide]
2 | 8.2e-05 M | 2.5e-05 | – | – | O=C(Nc1ccc(CCc2cc(O)cc(O)c2)cc1)C1=C(O)c2ccccc2S(=O)(=O)C1 [Example 33, N-[4-[2-(3,5-Dihydroxyphenyl)ethyl]phenyl]-4-hydroxy-2H-1-benzothiopyran-3-carboxamide, 1,1-dioxide]
3 | 1.9e-05 M | – | 0.0 | – | COc1ccccc1CCc1ccc(NC(=O)C2=C(O)c3ccccc3S(=O)(=O)C2)cc1 [Example 37, 4-Hydroxy-N-8 4-[2-(2-methoxyphenyl)ethyl]phenyl-2H-1-benzothiopyran-3-carboxamide, 1,1-dioxide]
4 | 6.68e-06 M | – | – | 0.0 | O=C(Nc1ccc(CCc2ccccc2O)cc1)C1=C(O)c2ccccc2S(=O)(=O)C1 [Example 38]
5 | 2.48e-05 M | 5.7e-05 | – | – | COc1cccc(CCc2ccc(NC(=O)C3CS(=O)(=O)c4ccccc4C3=O)cc2)c1 (centres unmarked) [Example 39]
6 | 5.6e-05 M | 8.2e-05 | – | – | O=C(Nc1ccc(CCc2ccc(O)cc2)cc1)C1CS(=O)(=O)c2ccccc2C1=O (centres unmarked) [Example 40]
7 | 2.06e-05 M | – | 0.0 | – | Cc1ccccc1CCc1ccc(NC(=O)C2=C(O)c3ccccc3S(=O)(=O)C2)cc1 [Example 43]
8 | 3.02e-06 M | – | – | 0.0 | O=C(Nc1ccc(CCc2ccc(C(F)(F)F)cc2)cc1)C1CS(=O)(=O)c2ccccc2C1=O (centres unmarked) [Example 44]
9 | 9.44e-06 M | – | 0.0 | – | Cc1ccc(CCc2ccc(NC(=O)C3CS(=O)(=O)c4ccccc4C3=O)cc2)cc1 (centres unmarked) [Example 45]
10 | 1.11e-05 M | – | 0.0 | – | CCOC(=O)c1ccc(CCc2ccc(NC(=O)C3CS(=O)(=O)c4ccccc4C3=O)cc2)cc1 (centres unmarked) [Example 47, 4-[2-[4-[[(3,4-Dihydro-4-oxo-2H-1-benzothiopyran-3-yl)carbonyl]amino]pheyl]ethyl]benzoic acid, ethyl ester, 1,1-dioxide]
11 | 0.000149 M | 3.5e-05 | – | – | CC(=O)Nc1ccc(CCc2ccc(NC(=O)C3CS(=O)(=O)c4ccccc4C3=O)cc2)cc1 (centres unmarked) [Example 49]
12 | 8.47e-06 M | – | 0.0 | – | CCCCCCc1ccc(NC(=O)C2CS(=O)(=O)c3ccccc3C2=O)cc1 (centres unmarked) [Example 58, N-(4-Hexylphenyl)-3,4-dihydro-4-oxo-2H-1-benzothiopyran-3-carboxamide, 1-1-dioxide]
13 | 7.29e-06 M | – | – | 0.0 | CCCCCCCCc1ccc(NC(=O)C2CS(=O)(=O)c3ccccc3C2=O)cc1 (centres unmarked) [Example 59, 3,4-Dihydro-N-(4-octylphenyl)-4-oxo-2H-1-benzothiopyran-3-carboxamide, 1,1-dioxide]
14 | 2e-05 M and 2.05e-05 M | 1e-06 | – | – | CCCCCCCCCCCCc1ccc(NC(=O)C2CS(=O)(=O)c3ccccc3C2=O)cc1 (centres unmarked) [Example 61, N-(4-Dodecylphenyl)-3,4-dihydro-4-oxo-2H-1-benzothiopyran-3-carboxamide, 1,1-dioxide]
15 | 7.46e-06 M | 0.0002 | – | – | O=C(Nc1ccc(CCc2cc(Cl)cc(Cl)c2)cc1)C1=C(O)c2ccccc2S(=O)(=O)C1 [Example 71, 2H-1-Benzothiopyran-3-carboxamide, N-[4-[2-(3,5-dichlorophenyl)ethyl]phenyl]-4-hydroxy-, 1,1-dioxide]
16 | 3.5e-06 M | 2.6e-06 | – | – | O=C(Nc1ccc(CCc2ccc(Cl)cc2Cl)cc1)C1=C(O)c2ccccc2S(=O)(=O)C1 [Example 72, 2H-1-Benzothiopyran-3-carboxamide, N-[4-[2-(2,4-dichlorophenyl)ethyl]phenyl]-4-hydroxy-1,1-dioxide]
17 | 3.95e-05 M | – | 0.0 | – | O=C(Nc1ccc(CCc2cccc(O)c2)cc1)C1CS(=O)(=O)c2ccccc2C1=O (centres unmarked) [Example 82]
18 | 6.88e-05 M | 8.2e-06 | – | – | O=C(Nc1ccc(CCc2ccc(O)c(O)c2)cc1)C(=O)c1sc2ccccc2c1O [Example 134, N-[4-[2-(3,4-Dihydroxyphenyl)ethyl]phenyl]-3-hydroxy-α-oxo-benzo[b]thiophene-2-acetamide]
19 | 0.000113 M | 3.3e-05 | – | – | O=C(Nc1ccc(CCc2ccc(O)c(O)c2)cc1)C(=O)c1sc2ccc(Cl)cc2c1O [Example 138, Benzo[b]thiophene-2-acetamide, 5-chloro-N-[4-[2-(3,4-dihydroxyphenyl)ethyl]phenyl]-3-hydroxy-α-oxo]
